The viability is the share of living cells, or the viability signal relative to a control.

Ends that are not written are not given here.

Series [1] deals with Escherichia coli. Nature of the series: Flow cytometry, propidium iodide, effect on bacteria membrane. In kind it is cell-based. The settings on record: peptide at MIC. As for the experimental part: (§1) After that, the supernatant was removed by centrifuge (10,000 rpm) and stained with propidium iodide (PI, concentration of 10 μg/ml) for 30 minutes at 4° C. Thereafter, unbound propidium iodide was removed by centrifuge, and the problem of cell aggregation phenomenon was solved by adding physiological saline (PBS) in an amount of 1 ml.
(A flow cytometer gives signals particle by particle.)

Series [2] relates to Staphylococcus aureus. Described as above. It is filed as cell-based. The settings on record: peptide at MIC. The procedure: as §1
A further series deals with plasmid DNA (pRSETB). Nature of the series: Binding between antimicrobial peptide and DNA (agarose gel electrophoresis). The settings on record: plasmid DNA 300 ng, peptide/DNA ratio 0.25:1 to 4:1, 10 minutes at 37° C. As for the experimental part:
Specifically, plasmid DNA (pRSETB, 300 ng) and the peptide were reacted for at different ratio (i.e., peptide/DNA ratio was 0 (DNA only), 0.25:1, 0.5:1, 1:1, 1.5:1, 2:1, 3:1, or 4:1) for 10 minutes at 37° C. After that, electrophoresis was carried out using 1% agarose gel followed by staining with ethidium bromide (EtBr) and UV determination.

Series [3] is described as follows: Cytotoxicity in normal cell line (MTT). The settings on record: human, HaCaT keratinocyte cells. The procedure:
(§2) To determine the cytotoxicity of the peptides produced by the method of Example 1 in normal cell line, cytotoxicity was measured by using human keratinocyte cell line (HaCaT cell line, Dr. N E. Fusenig, Heidelberg, Germany).
(§3) Specifically, HaCaT cells, which have been cultured in DMEM medium containing 10% FBS (fetal bovine serum), were aliquoted in a microtiter plate to have 2×10^5 cells per well. […] Twenty-four hours later, a reaction solution containing 0.5 mg/ml MTT (thiazolyl blue tetrazolium bromide) dissolved in phosphate buffered saline (PBS) was added in an amount of 100 μl to each well and the reaction was allowed to occur for 4 hours. After that, the supernatant was discarded, and, by dissolving MTT crystals that are formed by adding 200 μl DMSO (dimethyl sulfoxide), the absorbance at 560 nm was measured to determine the cell survival ability.

Series [4] relates to erythrocytes of a mouse (Balb/c). Nature of the series: Erythrocyte hemolytic activity. The settings on record: 1 hour at 37° C. As for the experimental part: To compare the cytotoxicity among the peptides that are produced by the method of Example 1, erythrocyte hemolytic activity of the synthesized peptide was measured.
After that, the amount of hemoglobin contained in a supernatant collected by centrifuge at 1,000×g was determined by measuring the absorbance at a wavelength of 414 nm. As a control to be used as a reference for cell disruption level, the supernatant collected by a treatment with 1% Triton X-100 (Sigma, USA) and a reaction for 1 hour at 37° C. was used to measure the absorbance. By setting the resulting absorbance value at 100% of the erythrocyte hemolytic activity, hemolysis of each peptide was calculated using the following equation 1. Erythrocyte disrupting ability (%)=(Absorbance A−Absorbance B)/(Absorbance C−Absorbance B)×100 Equation 1 (in the above equation, Absorbance A indicates the absorbance of a reaction solution treated with each peptide, in which the absorbance is measured at a wavelength of 414 nm; Absorbance B indicates the absorbance of a reaction solution treated with PBS, in which the absorbance is measured at a wavelength of 414 nm; and Absorbance C indicates the absorbance of a reaction solution treated with 1% Triton X-100, in which the absorbance is measured at a wavelength of 414 nm).

Series [5] has as its system Escherichia coli. Nature of the series: Scanning electron microscopy (SEM), membrane damage. It is filed as cell-based. The settings on record: peptide at MIC, 1 hour at 37° C. The procedure:
(§4) As a control, cells applied with no peptide were used. After the culture, the cells were collected, and, by using 2.5% glutaraldehyde, the bacterial cells were treated for 18 hour at 4° C. After carrying out washing two times with PBS buffer solution, the fixed cells were dehydrated in stepwise manner by using 100% ethanol and diluted ethanol (50%, 70%, 90% and 100%). After the dehydration followed by drying, the specimen was coated with platinum and determination was made by low vacuum scanning electron microscopy.

The subject of series [6] is Staphylococcus aureus. Described as above. In kind it is cell-based. The settings on record: peptide at MIC, 1 hour at 37° C. The procedure:
as §4

A further series has as its system S. aureus (CCARM 3518). The settings on record: 24 hours at 37° C.
For a further series, the system named is S. aureus (ATCC 25923). The settings on record: 24 hours at 37° C.
For another series, the system named is E. coli (CCARM 1238). The settings on record: 24 hours at 37° C.
The next series relates to P. aeruginosa 4891. The settings on record: P. aeruginosa 4891, 24 hours at 37° C.
For series [7], the system named is P. aeruginosa (ATCC 27853). The settings on record: 24 hours at 37° C.
Another series relates to E. coli (CCARM 1229). The settings on record: 24 hours at 37° C.
The next series concerns E. coli (ATCC 25922). The settings on record: 24 hours at 37° C.
The next series relates to S. aureus (CCARM 3090). The settings on record: 24 hours at 37° C.
A further series relates to P. aeruginosa 4007. The settings on record: P. aeruginosa 4007, 24 hours at 37° C.
The test system of series [8] is Pseudomonas aeruginosa isolated strain 4007 (tolerance to antibiotics). The source says:
(§5) To compare the antimicrobial activity among the peptides produced by the method of Example 1, the inventors of the present invention measured the minimal growth inhibitory concentration (MIC), which is minimum concentration of the peptide not allowing any […] of bacterial cells.
(§6) Specifically, the bacterial strains described in the following Table 2 were purchased and cultured to a mid-log phase in a medium that is appropriate for each strain. […] After the addition to a plate, the cells were cultured for 18 hours at 37° C. […] As a control, Pseudin-2 as a mother peptide was used.

The subject of series [9] is Candida albicans KCTC 7270. The settings on record: KCTC 7270, 18 h.
Excerpt: as §5, §6

Series [10] has as its system Salmonella typhimurium KCTC 1926. The settings on record: KCTC 1926, 18 h.
Excerpt: as §5, §6

The test system of series [11] is Staphylococcus aureus CCARM 3518 (tolerance to antibiotics).
Excerpt: as §5, §6

In series [12] the test system is Escherichia coli CCARM 1229 (tolerance to antibiotics).
Excerpt: as §5, §6

For series [13], the system named is Trichosporon beigelii KCTC 7707. The settings on record: KCTC 7707, 18 h.
Excerpt: as §5, §6

For series [14], the system named is Escherichia coli CCARM 1238 (tolerance to antibiotics).
Excerpt: as §5, §6

For series [15], the system named is Escherichia coli ATCC 25922. The settings on record: ATCC 25922, 18 h.
Excerpt: as §5, §6

Series [16] deals with Staphylococcus aureus ATCC 25923. The settings on record: ATCC 25923, 18 h.
Excerpt: as §5, §6

Series [17] deals with Staphylococcus aureus CCARM 3090 (tolerance to antibiotics).
Excerpt: as §5, §6

For series [18], the system named is Bacillus subtilis KCTC 1998. The settings on record: KCTC 1998, 18 h.
Excerpt: as §5, §6

Series [19] concerns Pseudomonas aeruginosa isolated strain 4891 (tolerance to antibiotics).
Excerpt: as §5, §6

For series [20], the system named is Listeria monocytogenes KCTC 3710. The settings on record: KCTC 3710, 18 h.
Excerpt: as §5, §6

The subject of series [21] is Pseudomonas aeruginosa ATCC 27853. The settings on record: ATCC 27853, 18 h.
Excerpt: as §5, §6

Series [22] relates to human keratinocyte cell line (HaCaT). Nature of the series: in vitro. The settings on record: HaCaT keratinocyte cells, 24 h, 100 µM. As for the experimental part: as §2, §3

As to LNALKKVFQGIHEAIKKI-NH2 [Pse-T3], the “Membrane disrupting ability compared with Pseudin-2” value in the series with Escherichia coli [1] and with Staphylococcus aureus [2] was “higher membrane disrupting ability than Pseudin-2” in each case. Moreover, in the series with plasmid DNA (pRSETB), the “Binding to DNA” value is given as “showed binding to DNA”. The viability at 24 h, 3.13 µM in series [3] stood at 100%. Also, the viability at 24 h, 6.25 µM in [3] is 100%. The compound further registered a viability at 24 h, 12.5 µM in series [3] of 100%. The same compound registered a viability at 24 h, 25 µM in series [3] of 100%. This compound came in with a viability at 24 h, 50 µM in series [3] of 100%. The viability at 24 h, 100 µM in series [3] came out at 90.3%. Also, the Erythrocyte disrupting ability in series [4] (peptide concentration 3.13 μM) is reported as 0%; in series [4] (peptide concentration 6.25 μM) it was 0%; in series [4] (peptide concentration 12.5 μM), 0%; in [4] (peptide concentration 25 μM), 0.5%; in series [4] (peptide concentration 50 μM), 2.2%; in series [4] (peptide concentration 100 μM) it was 5.6%. The “Membrane damage by SEM” value with Escherichia coli [5] was “rougher than the cells treated with Pseudin-2”; in the series with Staphylococcus aureus [6] it was “higher damage and disruption of cell membrane”.
Take `O=C(O)c1cn(C2CC2)c2cc(N3CCNCC3)c(F)cc2c1=O` [Ciprofloxacin]: the “Biofilm minimal inhibitory concentration” value is more than 400 µM in the series with S. aureus (CCARM 3518); 4 µM in the series on S. aureus (ATCC 25923); 128 µM in the series with E. coli (CCARM 1238); more than 400 µM in the series with P. aeruginosa 4891; 2 µM in series [7]; 128 µM in the series on E. coli (CCARM 1229). Also, the “Biofilm minimal inhibitory concentration” value with E. coli (ATCC 25922) is 2 µM; with S. aureus (CCARM 3090), more than 400 µM; with P. aeruginosa 4007, more than 400 µM.
For the compound “WLNALKKVWQGIHEAIKLIWNWVQ-NH2 [Pse-Anal4]”, the Minimal inhibitory concentration in [8] is 64 µM; in [9] it was 32 µM; in series [10], 16 µM; in series [11], 32 µM; in series [12] it was 32 µM; in series [13] it was 32 µM. Besides, the Minimal inhibitory concentration in series [14] amounted to 32 µM; in series [15], 16 µM; in series [16], 32 µM; in [17], 32 µM; in [18] it was 32 µM; in series [19] it was 64 µM. The Minimal inhibitory concentration in series [20] was found to be 32 µM; in series [21], 16 µM. Moreover, in series [22], the Cell survival ability is 10.8%. In [3] (Cell survival ability), this compound displayed a viability at 24 h, 3.13 µM of 46.1%. Also, the viability at 24 h, 6.25 µM in series [3] (Cell survival ability) was 35.1%. Moreover, the viability at 24 h, 12.5 µM in series [3] (Cell survival ability) turned out to be 25.4%. The compound also yielded a viability at 24 h, 25 µM in series [3] (Cell survival ability) of 20.8%. Moreover, in series [3] (Cell survival ability), the viability at 24 h, 50 µM stood at 15.3%. For the same compound, the viability at 24 h, 100 µM in series [3] (Cell survival ability) is 10.1%.
